Experimental data published in paper PMC10812672, “Short Antimicrobial Peptide Derived from the Venom Gland Transcriptome of Pamphobeteus verdolaga Increases Gentamicin Susceptibility of Multidrug-Resistant Klebsiella pneumoniae” (Antibiotics, 2023).
Ends that are not written are not given here.

Columns and labels:
E. coli ATCC® 25922 = type: cell-based, Escherichia coli; details: CLSI broth microdilution, Mueller-Hinton broth, peptide 30 µM, ~6 × 10^6 CFU/mL, 24 h 37 °C, OD600; triplicate, three independent assays; NA = no activity
Method: (§1) Activity screening was conducted using the broth microdilution method at a fixed peptide concentration of 30 µM against E. coli ATCC® 8739 and 25922, as well as S. aureus ATCC® 6538 and 29213. The bacterial density used for screening was approximately 6 × 10^6 CFU/mL [30]. Peptide activity measurements were conducted in terms of the growth inhibition percentage. No dose-response curves were generated during the screening phase as a resource optimization strategy in the initial activity evaluation. […] For S. aureus ATCC® 6538 and S. aureus ATCC® 29213, growth inhibition ranged from 0% to 140% and 0% to 98%, respectively (Table 1).
(§2) The evaluation of the antimicrobial activity of the peptides was conducted using the CLSI’s broth microdilution method for bacterial susceptibility testing. For the screening phase, peptides were evaluated at a single 30 μM concentration, in triplicate and in three independent assays, against the E. coli ATCC® 8739, E. coli ATCC® 25922, S. aureus ATCC® 6538, or S. aureus ATCC® 29213 reference USP and CLSI strains. For the determination of MIC, MBC, or IC50, peptides or antibiotics were evaluated in concentrations between 1.56–200 µM. These evaluations were conducted in triplicate and in three independent assays, against the E. coli ATCC® 25922, S. aureus ATCC® 29213, E. faecalis ATCC® 49532, P. aeruginosa ATCC® 9027, and K. pneumoniae ATCC® BAA-1705, or the clinically isolated MDR strain. In detail, 1 mL of a glycerol stock solution of the ATCC® or clinically isolated bacterial strain was added to 9 mL of Mueller-Hinton Broth and incubated for 18 h, 180 rpm and 37 °C (Incubator 1000, Heidolph Instruments, Schwabach, Germany). After the incubation, 1 mL of the previous solution was transferred to a new recipient containing 9 mL of fresh Mueller-Hinton broth and incubated for 4 h, 180 rpm and 37 °C (Incubator 1000, Heidolph Instruments, Schwabach, Germany). During the second incubation, the peptides or the antibiotics were dissolved in PBS pH 7.20 in concentrations between 19.53–2500 µM (MC5 Micro Balance, Sartorius AG, Göttingen, Germany). An amount of 10 µL of either peptide or antibiotic was dispensed in triplicate in 96-well flat bottom culture plates, along with 10 µL of PBS (Negative activity control), BTM-P1 (Positive activity control), or 10 µL of Mueller-Hinton broth (Blank); then, 110 µL of Mueller-Hinton broth was poured in all wells. Following this, the bacteria were suspended in Mueller-Hinton broth up to a concentration of approximately 1.50 × 10^8 CFU/mL, as measured by optical density at 600 nm between 0.06 to 0.11 (0.5 McFarland standard), in a Multiskan SkyHigh spectrophotometer (ThermoFisher Scientific, Waltham, MA, USA). Amounts of 5 µL of the 1.50 × 10^8 CFU/mL suspension were added to each well (except for the blank) for a final well concentration of approximately 6 × 10^6 CFU/mL. The plate was incubated for 24 h at 37 °C (BE 500, Memmert GmbH, Büchenbach, Germany) and optical density was measured at 600 nm in a Multiskan SkyHigh spectrophotometer (ThermoFisher Scientific, Waltham, MI, USA). Following the measurement of optical density, plates were visually inspected to determine the MIC. Subsequently, 100 µL of the concentration associated to the MIC and 100 µL of the next higher concentration were added to Petri dishes containing Mueller-Hinton Agar. The dishes were then incubated for 24 h at 37 °C (BE 500, Memmert GmbH, Büchenbach, Germany). After incubation, the Petri dishes were visually inspected, and the MBC was determined in the absence of growth. IC50 values were interpolated from regressions with correlation values above 0.70. Growth inhibition percentages were calculated as follows: Growth inhibition %=1−AbsPEPTIDE or ANTIBIOTIC−Median AbsBLANK/Median AbsPBS−Median AbsBLANK×100

E. coli ATCC® 8739 = type: cell-based, Escherichia coli; details: CLSI broth microdilution, Mueller-Hinton broth, peptide 30 µM, ~6 × 10^6 CFU/mL, 24 h 37 °C, OD600; triplicate, three independent assays; NA = no activity
Method: as §1, §2

[1] = tested on: human red blood cells (hRBCs); assay: Hemolytic activity; type: cell-based
Method: The cytotoxicity of PvAMP66 was assessed in vitro against human red blood cells (hRBCs) and human peripheral blood mononuclear cells (hPBMCs) using concentrations of 1.56–200 µM. At the highest concentration, PvAMP66 induced 60% hemolysis in human erythrocytes (Figure 3a), and a decrease in viability of approximately 40% in the hPBMCs (Figure 3b). […] Ratios between CC50 or HC50, and the IC50 values registered for the bacterial strains, indicate that PvAMP66 has higher selectivity for interacting with prokaryotic membranes (Table 4).
Human red blood cells (hRBCs) were obtained from the Blood Bank of the School of Microbiology of the University of Antioquia in Medellín, Colombia. Ten mL of hRBCs were diluted in 10 mL of PSB pH 7.20, mixed by inversion, and centrifuged five times at 4 °C, 1000× g for 10 min (Universal 32 R, Hettich Group, Kirchlengern, Westphalia, Germany). […] Then, the supernatant was transferred to 96-well flat bottom culture plates without transferring of the RBC pellet, and hemoglobin release was measured at 420 nm (Multiskan SkyHigh, ThermoFisher Scientific, Waltham, MA, USA). All peptides were evaluated in three independent assays. The hemolysis percentage was calculated as follows: Hemolysis %=AbsPEPTIDE−Median AbsPBS/Median AbsTRITON−Median AbsPBS×100

## WKKIKKFF-NH2 [PvAMP66]
E. coli ATCC® 25922
  E. coli ATCC® 25922 (Inhibition %): 73.59 ± 21.83 %
E. coli ATCC® 8739
  E. coli ATCC® 8739 (Inhibition %): 88.81 ± 18.15 %
[1]; 10% v/v hRBC in PBS pH 7.20, 1 h 37 °C, hemoglobin at 420 nm, 1.56–200 µM, logistic regression, 95% CI in parentheses, three independent assays
  HC50 (Hemolytic Concentration 50): 132.96 (118.82–151.21) µM
[1]; human erythrocytes, highest concentration (200 µM), 1 h 37 °C
  hemolysis: 60%
